Reference: patent publication US20240190860A1, “8-CYCLO-SUBSTITUTED QUINAZOLINE DERIVATIVES AS LPA RECEPTOR 2 INHIBITORS” (CHIESI FARMACEUTICI S.p.A., priority 2021, published 2024)
Read-outs that look alike come from different tables or passages of the source.

Target: T1, human recombinant LPA2 expressed in CHO cells (Homo sapiens, UniProt Q9HBW0)
T1 construct: expressed in transfected cells; host or cells: CHO cells (CHO-hLPA2 cell line)
Test: FLIPR calcium mobilization assay, LPA2 antagonism in CHO-hLPA2 cells
Assay type: cell-based
In short: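 CHO cells stably expressing human LPA2, loaded 30 min at 37° C with 5 μM Cal-520 AM plus 2.5 mM probenecid in HEPES buffer pH 7.4, then preincubated 30 min with antagonist (11-point series, 0.5% DMSO final). Challenged with LPA at EC80; baseline-subtracted peak FLIPR fluorescence converted to % inhibition and pIC50 by four-parameter logistic fit.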

[1] = CHO-hLPA2 cells, inhibition of LPA EC80 Ca2+ response, 30 min pre-incubation, read-out: LPA2 IC50

T1 sequence (Q9HBW0 whole entry): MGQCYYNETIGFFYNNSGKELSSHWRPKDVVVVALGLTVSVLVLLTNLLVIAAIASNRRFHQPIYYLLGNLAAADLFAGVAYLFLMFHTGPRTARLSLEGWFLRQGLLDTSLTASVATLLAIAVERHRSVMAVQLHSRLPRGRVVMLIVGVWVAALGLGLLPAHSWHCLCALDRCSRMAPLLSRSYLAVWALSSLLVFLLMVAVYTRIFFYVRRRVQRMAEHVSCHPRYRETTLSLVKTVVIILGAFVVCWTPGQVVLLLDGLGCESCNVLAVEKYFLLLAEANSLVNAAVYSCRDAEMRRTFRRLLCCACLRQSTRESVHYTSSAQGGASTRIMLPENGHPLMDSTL

SMILES	IC50 [1] [nM]	IC50 (comparative compound, same in vitro assay, stated inactive on receptor LPA2, read-out: IC50 on LPA2 receptor) [nM]
C[C@@H](CN1CCN(S(=O)(=O)c2ccccn2)CC1)Nc1ncnc2c(-c3cn(C)nc3C(F)(F)F)cccc12 [Example 103, 8-[1-methyl-3-(trifluoromethyl)-1H-pyrazol-4-yl]-N-[(2S)-1-[4-(pyridine-2-sulfonyl)piperazin-1-yl]propan-2-yl]quinazolin-4-amine]	10 to 100	
C[C@@H](CN1CCN(S(=O)(=O)c2cccnc2)CC1)Nc1ncnc2c(-c3cn(C)nc3C(F)(F)F)cccc12 [Example 104, 8-[1-methyl-3-(trifluoromethyl)-1H-pyrazol-4-yl]-N-[(2S)-1-[4-(pyridine-3-sulfonyl)piperazin-1-yl]propan-2-yl]quinazolin-4-amine]	10 to 100	
Cc1nc2ccc(S(=O)(=O)N3CCN(C[C@H](C)Nc4ncnc5c(-c6ccc(F)c(CN(C)C)c6)cccc45)CC3)cc2s1 [Example 105, 8-{3-[(dimethylamino)methyl]-4-fluorophenyl}-N-[(2S)-1-{4-[(2-methyl-1,3-benzothiazol-6-yl)sulfonyl]piperazin-1-yl}propan-2-yl]quinazolin-4-amine]	< 10	
COC(=O)Nc1nc(C)c(S(=O)(=O)N2CCN(C[C@H](C)Nc3ncnc4ncccc34)CC2)s1 [comparative Example A, Methyl (S)-(4-methyl-5-((4-(2-(pyrido[2,3-d]pyrimidin-4 ylamino)propyl)piperazin-1-yl)sulfonyl)thiazol-2-yl)carbamate, reference compound]		> 3000
